Measurements published in publication PMC7486443, “Generation of Phenothiazine with Potent Anti-TLK1 Activity for Prostate Cancer Therapy” (iScience, 2020).

How the values were obtained:
Assay in all cases: biochemical
Set-up in all cases: DiscoverX KINOMEscan scanMAX competition binding panel, single concentration, percent of control; remaining binding: dose or concentration left out as unconfirmed
Settings in all cases: KINOMEscan binding, percent of control; read-out: Table S4_SCANMAX REPORT - related to Fig. 1 / Percent Control
EGFR(G719S) = EGFR(G719S) (Homo sapiens, UniProt P00533, G719S)
ACVR2B = ACVR2B (Homo sapiens, UniProt Q13705)
[1] = molecular target: T1, TYK2(JH2domain-pseudokinase) (Homo sapiens, UniProt P29597)
T1 construct: JH2domain-pseudokinase

KIT(L576P) = KIT(L576P) (Homo sapiens, UniProt P10721, L576P)
MEK4 = molecular target: T2, MEK4 (Homo sapiens, UniProt P45985)
T2 construct: gene MAP2K4

PIM1 = PIM1 (Homo sapiens, UniProt P11309)
EPHA8 = EPHA8 (Homo sapiens, UniProt P29322)
IKK-epsilon = molecular target: T3, IKK-epsilon (Homo sapiens, UniProt Q14164)
T3 construct: gene IKBKE

PRKG2 = PRKG2 (Homo sapiens, UniProt Q13237)
BIKE = molecular target: T4, BIKE (Homo sapiens, UniProt Q9NSY1)
T4 construct: gene BMP2K

CHEK1 = CHEK1 (Homo sapiens, UniProt O14757)
[2] = molecular target: EGFR(L747-S752del, P753S) (Homo sapiens, UniProt P00533, DEL747-752/P753S)
EGFR(T790M) = EGFR(T790M) (Homo sapiens, UniProt P00533, T790M)
ALK(L1196M) = ALK(L1196M) (Homo sapiens, UniProt Q9UM73, L1196M)
PKAC-alpha = molecular target: T5, PKAC-alpha (Homo sapiens, UniProt P17612)
T5 construct: gene PRKACA

ZAK = molecular target: T6, ZAK (Homo sapiens, UniProt Q9NYL2)
T6 construct: gene MAP3K20

ROCK1 = ROCK1 (Homo sapiens, UniProt Q13464)
SGK = molecular target: T7, SGK (Homo sapiens, UniProt O00141)
T7 construct: gene SGK1

Sequence of KIT(L576P) (P10721 whole entry L576P): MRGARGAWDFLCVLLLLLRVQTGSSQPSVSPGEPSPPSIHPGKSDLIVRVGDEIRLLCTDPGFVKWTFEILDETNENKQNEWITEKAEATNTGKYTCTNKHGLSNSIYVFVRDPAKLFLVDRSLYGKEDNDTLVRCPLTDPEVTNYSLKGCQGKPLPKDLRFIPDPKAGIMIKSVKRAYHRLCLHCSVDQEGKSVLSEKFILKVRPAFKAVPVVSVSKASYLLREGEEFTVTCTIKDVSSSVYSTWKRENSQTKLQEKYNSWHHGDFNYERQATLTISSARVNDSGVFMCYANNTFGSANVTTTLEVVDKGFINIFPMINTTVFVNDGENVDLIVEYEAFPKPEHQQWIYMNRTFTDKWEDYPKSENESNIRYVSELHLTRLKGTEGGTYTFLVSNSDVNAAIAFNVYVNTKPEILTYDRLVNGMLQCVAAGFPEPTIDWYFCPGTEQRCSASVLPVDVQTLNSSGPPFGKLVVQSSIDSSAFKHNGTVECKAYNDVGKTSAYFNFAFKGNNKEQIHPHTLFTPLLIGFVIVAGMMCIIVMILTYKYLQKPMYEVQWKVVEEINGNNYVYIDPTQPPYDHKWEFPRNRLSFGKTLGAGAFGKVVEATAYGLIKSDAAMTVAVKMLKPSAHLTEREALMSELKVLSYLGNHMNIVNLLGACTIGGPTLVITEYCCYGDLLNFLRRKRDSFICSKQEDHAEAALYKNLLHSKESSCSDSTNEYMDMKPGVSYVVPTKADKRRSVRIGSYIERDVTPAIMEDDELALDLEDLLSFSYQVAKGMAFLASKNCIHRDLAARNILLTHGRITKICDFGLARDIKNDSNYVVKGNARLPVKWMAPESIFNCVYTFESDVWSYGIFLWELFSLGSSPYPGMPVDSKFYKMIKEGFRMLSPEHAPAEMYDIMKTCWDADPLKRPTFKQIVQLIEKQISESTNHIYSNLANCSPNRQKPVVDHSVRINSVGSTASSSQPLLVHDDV
T3 sequence (Q14164 whole entry): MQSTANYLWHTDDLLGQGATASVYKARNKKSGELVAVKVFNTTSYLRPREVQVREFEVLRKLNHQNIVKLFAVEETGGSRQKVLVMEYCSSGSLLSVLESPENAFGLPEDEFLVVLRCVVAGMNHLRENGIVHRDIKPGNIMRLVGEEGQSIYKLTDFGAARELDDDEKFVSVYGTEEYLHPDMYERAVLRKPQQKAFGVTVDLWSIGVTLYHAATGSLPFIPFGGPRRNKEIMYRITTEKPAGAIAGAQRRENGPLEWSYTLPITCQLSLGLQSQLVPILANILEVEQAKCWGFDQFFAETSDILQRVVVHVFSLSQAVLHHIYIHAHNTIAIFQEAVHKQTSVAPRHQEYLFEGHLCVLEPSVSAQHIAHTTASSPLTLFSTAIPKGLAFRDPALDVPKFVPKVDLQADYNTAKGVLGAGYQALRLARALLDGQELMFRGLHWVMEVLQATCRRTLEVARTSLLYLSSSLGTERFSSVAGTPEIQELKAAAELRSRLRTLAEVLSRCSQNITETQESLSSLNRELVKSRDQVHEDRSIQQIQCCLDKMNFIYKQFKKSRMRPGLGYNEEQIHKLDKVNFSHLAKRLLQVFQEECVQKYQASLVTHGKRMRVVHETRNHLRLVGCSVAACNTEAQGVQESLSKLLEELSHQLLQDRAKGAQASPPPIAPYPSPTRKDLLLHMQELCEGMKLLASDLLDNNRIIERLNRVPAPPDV
T2 sequence (P45985 whole entry): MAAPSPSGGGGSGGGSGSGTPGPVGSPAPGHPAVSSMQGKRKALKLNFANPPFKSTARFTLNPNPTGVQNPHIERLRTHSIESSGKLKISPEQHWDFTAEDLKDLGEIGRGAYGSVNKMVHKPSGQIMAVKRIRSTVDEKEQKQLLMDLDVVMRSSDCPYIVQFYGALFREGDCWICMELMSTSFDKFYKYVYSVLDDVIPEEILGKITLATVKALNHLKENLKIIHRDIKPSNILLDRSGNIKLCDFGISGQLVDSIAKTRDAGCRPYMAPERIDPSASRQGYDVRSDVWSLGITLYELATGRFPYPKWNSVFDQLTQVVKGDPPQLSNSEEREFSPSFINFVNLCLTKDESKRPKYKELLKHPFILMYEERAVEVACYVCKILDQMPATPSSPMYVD
Sequence of EGFR(T790M) (P00533 whole entry T790M): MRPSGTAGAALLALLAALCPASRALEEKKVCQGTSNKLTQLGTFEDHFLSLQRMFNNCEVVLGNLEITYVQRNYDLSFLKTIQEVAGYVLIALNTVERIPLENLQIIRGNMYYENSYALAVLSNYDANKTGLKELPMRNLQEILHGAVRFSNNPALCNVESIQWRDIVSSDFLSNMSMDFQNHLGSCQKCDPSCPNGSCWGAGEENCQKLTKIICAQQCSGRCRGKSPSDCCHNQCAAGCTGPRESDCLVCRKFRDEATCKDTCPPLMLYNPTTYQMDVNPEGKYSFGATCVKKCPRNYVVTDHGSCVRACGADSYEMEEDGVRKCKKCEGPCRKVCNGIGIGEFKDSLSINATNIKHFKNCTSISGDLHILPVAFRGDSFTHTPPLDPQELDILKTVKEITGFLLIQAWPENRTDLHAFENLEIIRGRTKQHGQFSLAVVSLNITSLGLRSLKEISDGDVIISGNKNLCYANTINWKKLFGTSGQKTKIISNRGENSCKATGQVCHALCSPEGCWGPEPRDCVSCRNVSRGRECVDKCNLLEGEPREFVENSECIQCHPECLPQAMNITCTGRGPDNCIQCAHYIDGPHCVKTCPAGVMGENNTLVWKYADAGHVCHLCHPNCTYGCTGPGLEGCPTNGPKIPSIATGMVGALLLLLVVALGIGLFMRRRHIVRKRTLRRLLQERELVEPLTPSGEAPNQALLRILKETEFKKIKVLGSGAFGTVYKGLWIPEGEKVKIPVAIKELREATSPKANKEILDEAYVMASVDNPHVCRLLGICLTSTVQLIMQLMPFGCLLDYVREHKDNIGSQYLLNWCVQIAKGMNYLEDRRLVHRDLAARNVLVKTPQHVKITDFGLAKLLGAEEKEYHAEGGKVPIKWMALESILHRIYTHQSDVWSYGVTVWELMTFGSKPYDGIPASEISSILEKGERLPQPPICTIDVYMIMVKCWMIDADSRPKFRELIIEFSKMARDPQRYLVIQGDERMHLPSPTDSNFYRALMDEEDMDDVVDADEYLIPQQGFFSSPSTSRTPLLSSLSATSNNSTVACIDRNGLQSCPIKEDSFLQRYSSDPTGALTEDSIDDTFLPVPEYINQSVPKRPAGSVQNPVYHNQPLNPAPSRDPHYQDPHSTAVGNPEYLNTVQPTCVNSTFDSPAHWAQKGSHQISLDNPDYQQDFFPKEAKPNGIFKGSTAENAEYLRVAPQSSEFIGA
T1 sequence (P29597 whole entry): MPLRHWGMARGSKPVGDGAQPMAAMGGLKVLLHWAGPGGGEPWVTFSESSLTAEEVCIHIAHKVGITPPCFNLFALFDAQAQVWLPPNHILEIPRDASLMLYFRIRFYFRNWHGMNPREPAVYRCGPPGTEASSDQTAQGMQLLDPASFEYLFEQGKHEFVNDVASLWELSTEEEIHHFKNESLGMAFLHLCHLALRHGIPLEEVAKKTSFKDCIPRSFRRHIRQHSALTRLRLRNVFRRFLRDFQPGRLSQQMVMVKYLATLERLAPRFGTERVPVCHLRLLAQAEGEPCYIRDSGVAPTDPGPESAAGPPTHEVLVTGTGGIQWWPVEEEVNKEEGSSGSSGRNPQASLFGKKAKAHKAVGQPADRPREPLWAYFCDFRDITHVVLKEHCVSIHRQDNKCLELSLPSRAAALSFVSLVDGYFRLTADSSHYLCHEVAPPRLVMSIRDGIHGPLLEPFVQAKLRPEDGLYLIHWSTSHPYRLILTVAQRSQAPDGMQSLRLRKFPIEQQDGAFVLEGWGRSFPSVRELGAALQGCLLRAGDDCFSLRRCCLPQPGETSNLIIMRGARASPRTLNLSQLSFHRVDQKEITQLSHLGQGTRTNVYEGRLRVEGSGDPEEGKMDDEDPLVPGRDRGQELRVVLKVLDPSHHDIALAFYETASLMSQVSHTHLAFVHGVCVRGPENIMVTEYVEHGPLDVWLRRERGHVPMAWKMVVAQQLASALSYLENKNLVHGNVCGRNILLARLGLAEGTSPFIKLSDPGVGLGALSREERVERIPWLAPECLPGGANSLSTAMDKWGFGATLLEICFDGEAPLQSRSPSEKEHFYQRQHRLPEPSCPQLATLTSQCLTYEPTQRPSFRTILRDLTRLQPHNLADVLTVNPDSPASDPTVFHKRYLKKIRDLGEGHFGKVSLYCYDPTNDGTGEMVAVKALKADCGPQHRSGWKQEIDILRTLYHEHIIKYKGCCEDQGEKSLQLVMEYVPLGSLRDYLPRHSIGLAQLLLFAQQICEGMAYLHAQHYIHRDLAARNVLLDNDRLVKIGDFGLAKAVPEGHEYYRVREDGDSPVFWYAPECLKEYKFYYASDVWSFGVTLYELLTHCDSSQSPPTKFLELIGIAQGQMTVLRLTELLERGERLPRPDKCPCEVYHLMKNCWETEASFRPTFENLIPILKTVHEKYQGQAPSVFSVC
Sequence of CHEK1 (O14757 whole entry): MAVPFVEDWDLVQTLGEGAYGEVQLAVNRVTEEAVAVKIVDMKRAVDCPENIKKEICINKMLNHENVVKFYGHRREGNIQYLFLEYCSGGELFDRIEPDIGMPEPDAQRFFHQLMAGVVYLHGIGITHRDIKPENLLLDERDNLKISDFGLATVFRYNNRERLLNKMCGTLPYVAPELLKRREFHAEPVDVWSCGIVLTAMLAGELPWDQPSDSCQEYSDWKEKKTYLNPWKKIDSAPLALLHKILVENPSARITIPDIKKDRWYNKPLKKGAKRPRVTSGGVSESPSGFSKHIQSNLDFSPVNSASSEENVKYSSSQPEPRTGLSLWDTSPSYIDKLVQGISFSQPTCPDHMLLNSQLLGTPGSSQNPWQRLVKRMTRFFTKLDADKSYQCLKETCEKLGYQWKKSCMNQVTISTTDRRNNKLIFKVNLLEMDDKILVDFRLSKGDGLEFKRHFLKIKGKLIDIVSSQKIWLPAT

## c1ccc2c(c1)Sc1ccccc1N2CCN1CCOCC1 [J54]
EGFR(G719S)
  remaining binding: 99%
ACVR2B
  remaining binding: 86%
[1]
  remaining binding: 100%
KIT(L576P)
  remaining binding: 100%
MEK4
  remaining binding: 100%
PIM1
  remaining binding: 81%
EPHA8
  remaining binding: 100%
IKK-epsilon
  remaining binding: 75%
PRKG2
  remaining binding: 99%
BIKE
  remaining binding: 52%
CHEK1
  remaining binding: 100%
[2]
  remaining binding: 92%
EGFR(T790M)
  remaining binding: 96%
ALK(L1196M)
  remaining binding: 100%
PKAC-alpha
  remaining binding: 98%
ZAK
  remaining binding: 85%
ROCK1
  remaining binding: 100%
SGK
  remaining binding: 93%
